{
  "source": "patent US20060235063A1",
  "about": "“Method of protecting a soybean plant with flutriafol” (priority 2005, published 2006)",
  "key": {"[1]": {"system": "Asian Rust (Phakopsora pachyrhizi) in Soy Beans", "test": "Example 1: climate chamber test, flutriafol seed or soil dressing, plants inoculated with rust spores at third trifoliate", "type": "in vivo", "method": "Soy bean seed was treated with a range of flutriafol rates, as presented in Table 1 below (right-hand side). Additionally, flutriafol was applied directly to the soil, at the rates described below (left-hand side). Three replicates were done per treatment. At the third trifoliate stage, seedlings where inoculated with rust spores on the ad- and ab-axial surfaces of the third trifoliate.\nFollowing treatments and inoculations, the inoculated plants were transferred to a climate chamber, watered as necessary and evaluated for the incidence of Asian Rust. The average of the recorded incidence of disease (%) on the third trifoliate is presented below. An untreated control is also provided as comparative data."}, "Asian Rust in Soy Beans": {"system": "Asian Rust in Soy Beans", "test": "Example 3: greenhouse experiment, flutriafol seed or soil dressing, plants inoculated with rust spores at third trifoliate", "type": "in vivo, Phakopsora pachyrhizi", "parameters": "average recorded incidence of disease on the third trifoliate: unit not given here", "method": "Soya seed was treated with a range of flutriafol rates, as presented in Table 3 below (right-hand side). Additionally, flutriafol was applied directly to the soil, at the rates described below (left-hand side). Three replicates where made per treatment. At the third trifoliate stage, seedlings where inoculated with rust spores on the ad- and ab-axial surfaces of the third trifoliate.\nFollowing treatments and inoculations, the inoculated plants where transferred to a climate chamber, watered as necessary and evaluated for the incidence of Asian Rust. The average of the recorded incidence of disease on the third trifoliate is presented below."}, "soybean rust": {"system": "soybean rust", "test": "Example 2: field trial at Formoso do Araguaia, Brazil, percentage rust coverage on leaves", "type": "in vivo", "excerpt": "A trial in Brazil at Formoso do Araguaia examined the rust control from nine rates of flutriafol applied as a 1.5% granule in a rate range of 4 to 40 kg formulated product per hectare (60 to 600 g flutriafol active ingredient per hectare), three rates of Vincit 2.5% powder seed dressing at […] formulated product per 100 kg seed (2.25 to 3.75 g flutriafol active ingredient per 100 kg seed) and four rates of Vincit 5% SC suspension concentrate seed dressing at 50 to 150 g formulation per 100 kg seed (1.5 to 4.5 g flutriafol active ingredient per 100 kg seed).\nThese treatments were compared with an untreated and a commercial standard treatment of Derosal Plus, which is a mixture of carbendazim plus thiram in a suspension concentrate formulation applied to seed at a rate of 200 ml formulation per 100 kg seed (30 g thiram plus 70 g carbendazim) per 100 kg seed. Both the untreated sample and the Derosal Plus treatment are provided below as comparative data.\n(§1) Seed was drilled at 60 kg per hectare in four replicates per treatment. Each replicate consisted of a 6 m row of 100 seeds. With the seed treatments, fertilizer was first applied up to 2 cm below seed depth and then the rows opened to a depth of 3 cm, the seeds sown and the rows closed with soil. In each treatment there were five rows of 6 m length with 45 cm between rows. With the in-furrow treatments, the row was opened using a hoe, and then the appropriate weight amount of Impact 1.5 GR was applied in the row followed directly afterwards with seed placed over the granules. Soil was then placed over the seed to close the row.\n(§2) Twenty two days after planting, the number of plants emerged was evaluated by counting the emerged seedlings in each of the central three rows of each plot. Disease assessment was done 61 days after emergence by selecting 20 leaves per plot from the whole plant at random, and estimating the percentage rust coverage (% disease severity)."}, "soybean": {"system": "soybean", "test": "Example 2: field trial, count of emerged seedlings (crop safety)", "conditions": "in vivo", "excerpt": "as §1, §2"}},
  "data": [
    {"smiles": "OC(Cn1cncn1)(c1ccc(F)cc1)c1ccccc1F", "note": "(racemic) [flutriafol, (RS)-2,4′-difluoro-α-(1H-1,2,4-triazol-1-ylmethyl)benzhydryl alcohol]", "values": [
      {"measurement": "disease control (in words)", "setting": "[1]; in-furrow treatments using 30 grams or more flutriafol per hectare", "result": "Significant improvements"},
      {"measurement": "average recorded incidence of disease (%) on the third trifoliate", "setting": "[1]; seed treatment 3 ppm", "result": 47, "unit": "%"},
      {"measurement": "average recorded incidence of disease (%) on the third trifoliate", "setting": "[1]; seed treatment 10 ppm", "result": 28, "unit": "%"},
      {"measurement": "average recorded incidence of disease (%) on the third trifoliate", "setting": "[1]; seed treatment 30 ppm", "result": 8, "unit": "%"},
      {"measurement": "average recorded incidence of disease (%) on the third trifoliate", "setting": "[1]; seed treatment 100 ppm", "result": 1, "unit": "%"},
      {"measurement": "average recorded incidence of disease (%) on the third trifoliate", "setting": "[1]; seed treatment 300 ppm", "result": 0, "unit": "%"},
      {"measurement": "average recorded incidence of disease (%) on the third trifoliate", "setting": "[1]; seed treatment 1000 ppm", "result": 0, "unit": "%"},
      {"measurement": "disease control (in words)", "setting": "[1]; seed treatments using 10 ppm flutriafol or more", "result": "Significant improvements"},
      {"measurement": "average recorded incidence of disease (%) on the third trifoliate", "setting": "[1]; soil application 3 g ai/Ha", "result": 73, "unit": "%"},
      {"measurement": "average recorded incidence of disease (%) on the third trifoliate", "setting": "[1]; soil application 10 g ai/Ha", "result": 63, "unit": "%"},
      {"measurement": "average recorded incidence of disease (%) on the third trifoliate", "setting": "[1]; soil application 30 g ai/Ha", "result": 53, "unit": "%"},
      {"measurement": "average recorded incidence of disease (%) on the third trifoliate", "setting": "[1]; soil application 100 g ai/Ha", "result": 12, "unit": "%"},
      {"measurement": "average recorded incidence of disease (%) on the third trifoliate", "setting": "[1]; soil application 300 g ai/Ha", "result": 2, "unit": "%"},
      {"measurement": "average recorded incidence of disease (%) on the third trifoliate", "setting": "[1]; soil application 1000 g ai/Ha", "result": 1, "unit": "%"},
      {"measurement": "disease control (in words)", "setting": "Asian Rust in Soy Beans; in-furrow treatments using 30 grams flutriafol per hectare or more", "result": "Complete disease control"},
      {"measurement": "disease control (in words)", "setting": "Asian Rust in Soy Beans; in-furrow treatments using just 3 grams flutriafol per hectare", "result": "Significant improvements in disease control"},
      {"measurement": "average recorded incidence of disease on the third trifoliate", "setting": "Asian Rust in Soy Beans; seed treatment 3 ppm, 21DPI", "result": 31},
      {"measurement": "average recorded incidence of disease on the third trifoliate", "setting": "Asian Rust in Soy Beans; seed treatment 10 ppm, 21DPI", "result": 35},
      {"measurement": "average recorded incidence of disease on the third trifoliate", "setting": "Asian Rust in Soy Beans; seed treatment 30 ppm, 21DPI", "result": 40},
      {"measurement": "average recorded incidence of disease on the third trifoliate", "setting": "Asian Rust in Soy Beans; seed treatment 100 ppm, 21DPI", "result": 0},
      {"measurement": "average recorded incidence of disease on the third trifoliate", "setting": "Asian Rust in Soy Beans; seed treatment 300 ppm, 21DPI", "result": 0},
      {"measurement": "average recorded incidence of disease on the third trifoliate", "setting": "Asian Rust in Soy Beans; seed treatment 1000 ppm, 21DPI", "result": 0},
      {"measurement": "disease control (in words)", "setting": "Asian Rust in Soy Beans; seed treatments using 100 ppm flutriafol or more", "result": "Complete disease control"},
      {"measurement": "average recorded incidence of disease on the third trifoliate", "setting": "Asian Rust in Soy Beans; soil treatment 3 g ai/Ha, 28DPI", "result": 18},
      {"measurement": "average recorded incidence of disease on the third trifoliate", "setting": "Asian Rust in Soy Beans; soil treatment 10 g ai/Ha, 28DPI", "result": 16},
      {"measurement": "average recorded incidence of disease on the third trifoliate", "setting": "Asian Rust in Soy Beans; soil treatment 30 g ai/Ha, 28DPI", "result": 0},
      {"measurement": "average recorded incidence of disease on the third trifoliate", "setting": "Asian Rust in Soy Beans; soil treatment 100 g ai/Ha, 28DPI", "result": 0},
      {"measurement": "average recorded incidence of disease on the third trifoliate", "setting": "Asian Rust in Soy Beans; soil treatment 300 g ai/Ha, 28DPI", "result": 0},
      {"measurement": "average recorded incidence of disease on the third trifoliate", "setting": "Asian Rust in Soy Beans; soil treatment 1000 g ai/Ha, 28DPI", "result": 0},
      {"measurement": "rust control (in words)", "setting": "soybean rust; all flutriafol seed treatment rates", "result": "reduction in rust"},
      {"measurement": "rust control (in words)", "setting": "soybean rust; in-furrow, lowest rate of 60 g flutriafol/hectare, 61 days after plant emergence", "result": "controlled the rust"},
      {"measurement": "rust control (in words)", "setting": "soybean rust; in-furrow, rates above 150 g flutriafol/hectare, 61 days after emergence", "result": "complete control"},
      {"measurement": "effect on plant numbers (in words)", "setting": "soybean", "result": "unaffected"},
      {"measurement": "phytotoxicity (in words)", "setting": "soybean", "result": "phytotoxic"}
    ]}
  ]
}
